Assay results taken from publication PMC6133161, “Thiazoles with cyclopropyl fragment as antifungal, anticonvulsant, and anti-Toxoplasma gondii agents: synthesis, toxicity evaluation, and molecular docking study” (Medicinal Chemistry Research, 2018).
Converted amounts (≈) assume the structure as drawn.

Assays:
[1] = system: C. glabrata; experiment: Broth microdilution MIC/MFC, clinical isolate; format: cell-based; conditions: Nakaseomyces glabratus, C. glabrata clinical strain; for MFC: read-out: MFC; for MIC: read-out: MIC
From the text: (§1) In the study of antifungal activity of the compounds 3a–3j, 15 clinical strains of different species of yeasts from Candida species, namely C. albicans, C. dubliniensis C. famata, C. inconspicua, C. krusei, C. tropicalis, C. glabrata, C. lambica, C. kefyr, C. lusitaniae, C. parapsilosis, C. guilliermondii, C. lusitaniae, C. pulcherrima and C. sake were also used. These fungi were isolated by the author (from Department of Pharmaceutical Microbiology of Medical University in Lublin, Poland) from different clinical materials, e.g., from upper respiratory tract of hospitalized patients including cancer patients (i.e., with non-small cell lung cancer or hematological malignancies). Some patients were after pre-operative or post-operative chemotherapy (treated with etoposide or cis-platin given in doses according to the standard procedures), patients with chronic hepatitis C (undergoing peginterferon and ribavirin therapy or without antiviral therapy), patients with diabetes, elderly people, aged of 65 years old or older, staying in close population, such as a care centre and people staying outside the home care. The Ethical Committee of the Medical University of Lublin approved the study protocol (No. KE-0254/75/2011). The isolates were identified by standard diagnostic methods—biochemical microtest, e.g., API 20C AUX, ID 32C, API Candida (bioMérieux) on the basis of assimilation of various substrates. All the used microbial cultures were first subcultured on nutrient agar or Sabouraud agar for bacteria and fungi, respectively. The RPMI 1640 with MOPS (for fungi) were inoculated with the suspensions of fungal species. Microbial suspensions were prepared in sterile saline (0.85% NaCl) with an optical density of 0.5 McFarland standard scale (Wiegand et al. [2008]). Samples containing examined compounds were dissolved in dimethyl sulfoxide (DMSO). Furthermore, fungal suspensions were put onto Petri dishes with solid media containing 2 mg/ml of the tested compounds followed incubation under appropriate conditions. The inhibition of microbial growth was judged by comparison with a control culture prepared without any sample tested. Nystatin (Sigma) was used as a reference antifungal compound. Subsequently MIC minimal inhibitory concentration (MIC) of the compounds was examined by the microdilution broth method, using their two-fold dilutions in RPMI 1640 broth with MOPS prepared in 96-well polystyrene plates. Final concentrations of the compounds ranged from 1000 to 0.0038 µg/ml. Microbial suspensions were prepared in sterile saline with an optical density of 0.5 McFarland standard. Next fungal suspension was added per each well containing broth and various concentrations of the examined compounds. After incubation, the MIC was assessed spectrophotometric as the lowest concentration of the samples showing complete fungal growth inhibition. Appropriate DMSO, growth and sterile controls were carried out. The medium with no tested substances was used as a control (Wiegand et al. [2008]). The minimal fungicidal concentration (MFC) are defined as the lowest concentration of the compounds that is required to kill a particular fungal species. MFC was determined by removing the culture using for MIC determinations from each well and spotting onto appropriate agar medium. The plates were incubated. The lowest compounds concentration with no visible growth observed was assessed as a fungicidal concentration. All the experiments were repeated three times and representative data are presented.
(§2) The MFC/MIC ratios were calculated in order to determine fungicidal (MFC/MIC ≤ 4) or fungistatic (MFC/MIC > 4) effect of the tested compounds (O’Donnell et al. [2010]).

[2] = system: C. dubliniensis; experiment: Broth microdilution MIC/MFC, clinical isolate; format: cell-based; conditions: Candida dubliniensis, C. dubliniensis clinical strain; for MFC: read-out: MFC; for MIC: read-out: MIC
From the text: as §1, §2

[3] = system: C. parapsilosis; experiment: Broth microdilution MIC/MFC, clinical isolate; format: cell-based; conditions: Lodderomyces parapsilosis, C. parapsilosis clinical strain; for MFC: read-out: MFC; for MIC: read-out: MIC
From the text: as §1, §2

[4] = system: C. pulcherrima; experiment: Broth microdilution MIC/MFC, clinical isolate; format: cell-based; conditions: C. pulcherrima clinical strain; for MFC: read-out: MFC; for MIC: read-out: MIC
From the text: as §1, §2

[5] = system: C. kefyr; experiment: Broth microdilution MIC/MFC, clinical isolate; format: cell-based; conditions: Kluyveromyces marxianus, C. kefyr clinical strain; for MFC: read-out: MFC; for MIC: read-out: MIC
From the text: as §1, §2

[6] = system: C. inconspicua; experiment: Broth microdilution MIC/MFC, clinical isolate; format: cell-based; conditions: Pichia inconspicua, C. inconspicua clinical strain; for MFC: read-out: MFC; for MIC: read-out: MIC
From the text: as §1, §2

[7] = system: C. tropicalis; experiment: Broth microdilution MIC/MFC, clinical isolate; format: cell-based; conditions: Candida tropicalis, C. tropicalis clinical strain; for MFC: read-out: MFC; for MIC: read-out: MIC
From the text: as §1, §2

[8] = system: C. lambica; experiment: Broth microdilution MIC/MFC, clinical isolate; format: cell-based; conditions: Pichia fermentans, C. lambica clinical strain; for MFC: read-out: MFC; for MIC: read-out: MIC
From the text: as §1, §2

[9] = system: Toxoplasma gondii RH strain; experiment: [3H]-uracil incorporation assay in VERO host cells; conditions: Toxoplasma gondii, Vero; for IC50: read-out: IC50 anti-Tg; for activity at 0.98 µg/mL / activity at 1.95 µg/mL / activity at 3.91 µg/mL / activity at 7.81 µg/mL / activity at 15.63 µg/mL / activity at 20 µg/mL / activity at 25 µg/mL / activity at 31.25 µg/mL: read-out: Proliferation of Toxoplasma gondii RH strain ± SD
[10] = system: maximal electroshock seizures; experiment: Maximal electroshock seizure (MES) test; format: in vivo, mouse; conditions: Mus musculus; MES test, mice, 100 mg/kg ip; read-out: X/Y number of mice protected (X) per number of mice tested (Y) (converted)
Procedure: For in vivo tests that assessed anticonvulsant properties of the test compounds 3a–3j adult male Albino Swiss (CD-1) mice weighing between 18 and 22 g were used. The animals were housed in groups of ten mice per cage at room temperature of 22 ± 2 °C, under light/dark (12:12) cycle. The animals had free access to food and tap water before the experiments. The ambient temperature of the experimental room and humidity (50 ± 10%) were kept consistent throughout all the tests. For behavioral experiments the animals were selected randomly. Each experimental group consisted of 4–8 animals/dose. The experiments were performed between 9 AM and 2 PM. Immediately after the in vivo assay the animals were euthanized by cervical dislocation. All procedures were approved by the Local Ethics Committee of the Jagiellonian University in Krakow (34/2018, 1.02.2018)) and the treatment of animals was in full accordance with ethical standards laid down in respective Polish and EU regulations (Directive No. 86/609/EEC). For in vivo tests the compounds 3a–3j were prepared in 1% Tween 80 solution (POCH, Poland) and they were administered by the intraperitoneal route. Control mice received 1% Tween 80. Pentylenetetrazole (PTZ), pilocarpine hydrochloride and scopolamine butylbromide were provided by Sigma Aldrich (Poland). For the tests they were prepared in 0.9% saline (Polfa Kutno, Poland). PTZ and pilocarpine were administered 60 min after the test compound or vehicle. To assess anticonvulsant properties of the test compounds anticonvulsant screening was conducted. Four assays were used: PTZ, maximal electroshock seizure (MES), 6-Hz and pilocarpine tests. In these assays the dose of 100 mg/kg was chosen as a starting dose. If it turned out to be effective, a lower dose (30 mg/kg) was also tested. MES test was performed according to a method previously described (Sałat et al. [2005]). In this test vehicle-treated mice and drug-treated mice received a stimulus of 25 mA delivered by an electroshock generator (Hugo Sachs rodent shocker, Germany) to induce maximal seizures (tonic extension) of hind limbs. Electroconvulsions were produced with the use of auricular electrodes and the stimulus duration was 0.2 s. Tonic extension of the hind limbs was regarded as the endpoint for this procedure.

Structure (SMILES)	MFC [1] [µg/mL]	MIC [1] [µg/mL]	MFC [2] [µg/mL]	MIC [2] [µg/mL]	MFC [3] [µg/mL]	MIC [3] [µg/mL]	MFC [4] [µg/mL]	MIC [4] [µg/mL]	MFC [5] [µg/mL]	MIC [5] [µg/mL]	MFC [6] [µg/mL]	MIC [6] [µg/mL]	MFC [7] [µg/mL]	MIC [7] [µg/mL]	MFC [8] [µg/mL]	MIC [8] [µg/mL]	IC50 [9] [µg/mL]	activity at 0.98 µg/mL [9] [%]	activity at 1.95 µg/mL [9] [%]	activity at 3.91 µg/mL [9] [%]	also measured
N#Cc1ccc(-c2csc(N/N=C/C3CC3)n2)cc1 [Compound 3h, (E)-4-(2-(2-(Cyclopropylmethylene)hydrazinyl)thiazol-4-yl)benzonitrile]	> 1000	125 (≈ 466 µM)	0.98 (≈ 3.65 µM)	0.48 (≈ 1.79 µM)	31.2 (≈ 116 µM)	1.95 (≈ 7.27 µM)	> 1000	62.5 (≈ 233 µM)	125 (≈ 466 µM)	7.81 (≈ 29.1 µM)	0.48 (≈ 1.79 µM)	0.24 (≈ 0.894 µM)	0.98 (≈ 3.65 µM)	0.03 (≈ 0.112 µM)	> 1000	125 (≈ 466 µM)	30.1 (≈ 112 µM)	86.1	83.3 ± 3.9	79.6 ± 1.15	activity at 7.81 µg/mL [9]: 75.5 ± 4.89%; activity at 15.63 µg/mL [9]: 65 ± 3.28%; activity at 20 µg/mL [9]: 56.6 ± 1%; activity at 25 µg/mL [9]: 53.9 ± 6.64%; activity at 31.25 µg/mL [9]: 43.81 ± 0.06%; responders at 100 mg/kg [10]: 50%
O=[N+]([O-])c1ccc(-c2csc(N/N=C/C3CC3)n2)cc1 [Compound 3j, (E)-2-(2-(Cyclopropylmethylene)hydrazinyl)-4-(4-nitrophenyl)thiazole]	> 1000	125 (≈ 434 µM)	0.48 (≈ 1.66 µM)	0.24 (≈ 0.832 µM)	1.95 (≈ 6.76 µM)	0.48 (≈ 1.66 µM)	> 1000	7.81 (≈ 27.1 µM)	> 1000	125 (≈ 434 µM)	1.95 (≈ 6.76 µM)	0.98 (≈ 3.4 µM)	0.015 (≈ 0.052 µM)	0.015 (≈ 0.052 µM)	> 1000	250 (≈ 867 µM)	21.8 (≈ 75.5 µM)	91 ± 2.47	94.44 ± 0.34	97.1 ± 4.63	activity at 7.81 µg/mL [9]: 96.7 ± 3.29%; activity at 15.63 µg/mL [9]: 60 ± 7.86%; activity at 20 µg/mL [9]: 58.8 ± 1.67%; activity at 25 µg/mL [9]: 40.3 ± 1.53%; activity at 31.25 µg/mL [9]: 35.1 ± 424%; responders at 100 mg/kg [10]: 50%
